# Data as given in patent US9422238B2, “ICMT inhibitors” (National University of Singapore, priority 2012, dated 2016).
# Where two headings read alike, the source gives them in different places.
# Legend:
# [1] = Pharmacokinetic study, IP; format: in vivo, mice; settings: for detection in plasma at late time points: IP; for half-life / AUC / Tmax / Cmax: female, mouse, plasma; for half-life: Balb/c
# PC3 cells [2] = experiment: Cell cycle analysis by flow cytometry; format: cell-based, human; settings: PC3, 48 h
# Description: PC3 cells were seeded at 100 000 cells/mL per well in 6-well plates with media DMEM (high glucose, 10% FBS, 50 μg/mL penicillin, 50 μg/mL streptomycin) and incubated (24 h, 37° C., 5% CO2) to allow cell attachment after which they were treated with test compound (in DMEM, high glucose, 5% FBS, 50 μg/mL penicillin, 50 μg/mL streptomycin) for 48 h. Final volume of DMSO per well was 0.05% v/v. Control wells (without test compound) were similarly treated. After the specified time, supernatant in the well was collected; the cell pellet was trypsinized, combined with the supernatant and pelleted by centrifugation (150 g, 5 min). After rinsing the pellet twice with ice-cold 1×PBS, the cells were suspended in 0.3 mL PBS, to which was added dropwise and with gentle shaking, cold ethanol (0.7 mL) to give a final concentration of 70% ethanol. The cell sample was then kept at 4° C. overnight after which it was centrifuged (150 g, 5 min), the supernatant was removed, the pellet rinsed with cold PBS and re-suspended in a solution of 100 μg/mL propidium iodide (PI, Sigma Aldrich, Singapore) and 0.1 mg/mL ribonuclease A (Sigma Aldrich, Singapore) in PBS (500 μL). The suspension was kept in the dark for 1 h, 25° C. (room temperature) before being analyzed for distribution in the G1,S, G2/M phases on a FCS500 flow cytometer (Beckman Coulter, CA) using the FlowJo® software (http: http://www.flowjo.com/) Each test compound was evaluated at 4 concentrations with 2 repeats per concentration.
# [3] = In vitro metabolite structure identification; format: in vitro ADME; settings: rat liver microsomes, 45 min, LC/MS/MS
# Description: The test compound was incubated with rat liver microsomes for 45 minutes, after which aliquots were analyzed by LC/MS/MS for the presence of metabolites. The test compound was incubated with pooled rat liver microsomes (BD Gentest Corp, Woburn, Mass.) in a mixture (final volume 500 μL) comprising the following: rat liver microsomes (7.5 μL of 20 mg microsomal protein to give final concentration of 0.3 mg microsome protein/mL), test compound (2.5 μL of 1 mM test compound in acetonitrile to give final concentration of […]) and phosphate buffer (440 μL of 0.1 M, pH 7.4, containing 1 mM EDTA). The mixture was preincubated for 5 min at 37° C. in a shaking water bath, after which-reaction was initiated by adding 50 μL of 10 mM NADPH (freshly prepared in phosphate buffer) to give a final concentration of 1 mM NADPH in the mixture. Aliquots of 50 μL were withdrawn immediately on addition of NADPH (time 0) and 45 min later. On removal of the sample, reaction was quenched by addition of chilled methanol (100 μL). The mixture was then centrifuged at 10,000 g to remove the protein and the supernatant was analyzed by LC-MS-MS.
# Liquid chromatography was performed on an Agilent® 1200 series HPLC system interfaced with a QTRAP 3200 triple quadruple mass spectrometer (Applied Biosystems, Foster City, Calif.). […]
# PC3 cells [4] = experiment: Apoptosis by Annexin V-FITC / propidium iodide staining; format: cell-based, human; settings: PC3, 48 h; for % Apoptotic / % Necrotic / % Normal: one analysis only; for induction of apoptosis: one determination, preliminary
# Description: The Annexing® V-FITC Apoptosis Detection Kit (BD Biosciences, Franklin Lakes, N.J.) was used PC3 cells were seeded at 65 000 cells per well in 6-well plates with DMEM (high glucose, supplemented with 10% FBS) as media. Plates were incubated (24 h, 37° C., 5% CO2) for cells to attach and then treated with test compound (prepared in same media but with 5% FBS) for 48 h. Final volume of DMSO per well was 0.05% v/v. After the specified time, the supernatant in the well was collected, the cell pellet was trypsinized, combined with the supernatant and pelleted by centrifugation (150 g, 5 min). The pellet was rinsed twice with cold 1×PBS and suspended in the proprietary binding buffer (1×) to give a concentration of 10^6 cells per mL. An aliquot (100 μL) of the suspension containing 10^5 cells was transferred to the FACS tube (5 mL) to which was added Annexin® V-FITC solution (5 μL) and propidium iodide (PI) solution (5 μL). The solution was gently vortexed, incubated in the dark for 15 min at room temperature (25° C.), after which was added 400 μL of the binding buffer (1×). The sample was analyzed immediately or no later than 1 h, in which case it should be kept in ice and protected from light. Analysis was carried out on a FCS500 flow cytometer (Beckman Coulter, CA) using the FlowJo® software (http: http://www.flowjo.com/). Controls comprised untreated cells, cells exposed to Annexin® V-FITC only, and cells exposed to PI only. Each test compound was evaluated at 4 concentrations. Only 1 determination was made per concentration.
# [5] = Balb/c mice, 20 mg/kg IP, 20 mg/kg
smiles,measurement,setting,value
"CCCCCCCCn1cc(CN(CC)CC)c2cc(-c3cnc(N)nc3)ccc21 [Compound 8-12, 5-(3-Diethylaminomethyl-1-octyl-1H-indol-5-yl)-pyrimidin-2-ylamine]",time to peak concentration in plasma,[1]; 10 mg/kg or 25 mg/kg IP,within an hour
same,Clearance,"[1]; Balb/c mice, 10 mg/kg IP",6.67 mL/min/kg
same,Clearance,"[1]; Balb/c mice, 25 mg/kg IP",10.1 mL/min/kg
same,Volume of Distribution,"[1]; Balb/c mice, 25 mg/kg IP",1.185 L/kg
same,detection in plasma at late time points,[1]; Balb/c mice,not detected after 24 h and 48 h
same,half-life,"[1]; intraperitoneal, summary, treated mice, read-out: half life",< 1 h
same,half-life,"[1]; ip, 10 mg/kg or 25 mg/kg IP, estimated, read-out: half life",< 3 h
same,half-life,"[1]; ip, 10 mg/kg, Balb/c mice, 10 mg/kg IP, read-out: T1/2 (converted)",1.25 h
same,half-life,"[1]; ip, 25 mg/kg, Balb/c mice, 25 mg/kg IP, read-out: T1/2 (converted)",1.36 h
same,AUC,"[1]; Balb/c mice, 10 mg/kg IP",24.6 µg·h/mL
same,Tmax,"[1]; Balb/c mice, 10 mg/kg IP",0.25 h
same,AUC,"[1]; Balb/c mice, 25 mg/kg IP",40.8 µg·h/mL
same,Tmax,"[1]; Balb/c mice, 25 mg/kg IP",0.75 h
same,Cmax,"[1]; Balb/c mice, 10 mg/kg IP",17.9 µg/mL
same,Cmax,"[1]; Balb/c mice, 25 mg/kg IP",17.4 µg/mL
same,effect on cell cycle distribution,PC3 cells [2],increased cells in the G1 phase while decreasing cells in G2 phase
same,% Cells in G1 phase,PC3 cells [2]; 0.8 μM,52.92 (2) %
same,% Cells in G2 phase,PC3 cells [2]; 0.8 μM,24.22 (2) %
same,% Cells in G1 phase,PC3 cells [2]; 1.0 μM,59.98 (2)^3%
same,% Cells in G2 phase,PC3 cells [2]; 1.0 μM,"26.99 (2.77, 3) %"
same,% Cells in G1 phase,PC3 cells [2]; 2.0 μM,66.45 (2)^3%
same,% Cells in G2 phase,PC3 cells [2]; 2.0 μM,11.20 (2)^3%
same,metabolites found,[3],four metabolites were proposed
same,% Apoptotic,PC3 cells [4]; 0.4 μM,1.45%
same,% Necrotic,PC3 cells [4]; 0.4 μM,4.95%
same,% Normal,PC3 cells [4]; 0.4 μM,93.6%
same,% Apoptotic,PC3 cells [4]; 0.8 μM,1.31%
same,% Necrotic,PC3 cells [4]; 0.8 μM,6.85%
same,% Normal,PC3 cells [4]; 0.8 μM,91.8%
same,% Apoptotic,PC3 cells [4]; 1.0 μM,0.71%
same,% Necrotic,PC3 cells [4]; 1.0 μM,8.84%
same,% Normal,PC3 cells [4]; 1.0 μM,90.4%
same,% Apoptotic,PC3 cells [4]; 1.2 μM,0.93%
same,% Necrotic,PC3 cells [4]; 1.2 μM,7.43%
same,% Normal,PC3 cells [4]; 1.2 μM,91.6%
same,induction of apoptosis,PC3 cells [4],Induction of apoptosis was also not observed
"CCCCCCCCn1cc(CC(N)=O)c2cc(-c3cccc(C)c3)ccc21 [Cysmethynil, 2-[5-(3-methylphenyl)-1-octyl-1H-indolo-3-yl]acetamide, reference compound]",Clearance,"[1]; Balb/c mice, 20 mg/kg IP",0.395 mL/min/kg
same,T1/2,[1]; [5],1.55 h
same,Volume of Distribution,[1]; [5],0.0529 L/kg
same,Volume of Distribution,"[1]; Balb/c mice, 20 mg/kg IP, listed as cysmethynil, 20 mg/kg",0.053 L/kg
same,Clearance,"[1]; Balb/c mice, 100 mg/kg IP",0.217 mL/min/kg
same,Volume of Distribution,"[1]; Balb/c mice, 100 mg/kg IP",0.0799 L/kg
same,detection in plasma at late time points,[1]; Balb/c mice,could not be detected in plasma beyond this time
same,half-life,"[1]; ip, 20 mg/kg, Balb/c mice, 20 mg/kg IP, read-out: T1/2 (converted)",1.6 h
same,half-life,"[1]; ip, 100 mg/kg, Balb/c mice, 100 mg/kg IP, read-out: T1/2 (converted)",4.3 h
same,AUC,"[1]; Balb/c mice, 20 mg/kg IP",843 µg·h/mL
same,Tmax,"[1]; Balb/c mice, 20 mg/kg IP",0.75 h
same,AUC,"[1]; Balb/c mice, 100 mg/kg IP",7690 µg·h/mL
same,Tmax,"[1]; Balb/c mice, 100 mg/kg IP",0.75 h
same,Cmax,"[1]; Balb/c mice, 20 mg/kg IP",210 µg/mL
same,Cmax,"[1]; Balb/c mice, 100 mg/kg IP",1160 µg/mL
same,effect on cell cycle distribution,PC3 cells [2],the changes in G1/G2 cell populations were not statistically significant
same,% Cells in G1 phase,PC3 cells [2]; 12.5 μM,53.0 (2) %
same,% Cells in G2 phase,PC3 cells [2]; 12.5 μM,27.87 (2) %
same,% Cells in G1 phase,PC3 cells [2]; 17.5 μM,51.83 (2) %
same,% Cells in G2 phase,PC3 cells [2]; 17.5 μM,"26.85 (12.28, 3) %"
same,% Cells in G1 phase,PC3 cells [2]; 20.0 μM,54.85 ( 2) %
same,% Cells in G2 phase,PC3 cells [2]; 20.0 μM,32.07 (2) %
same,metabolites found,[3],4 mono-oxygenated/hydroxylated metabolites (A-D)
same,% Apoptotic,PC3 cells [4]; 12.5 μM,0.92%
same,% Necrotic,PC3 cells [4]; 12.5 μM,6.94%
same,% Normal,PC3 cells [4]; 12.5 μM,92.1%
same,% Apoptotic,PC3 cells [4]; 17.5 μM,1.96%
same,% Necrotic,PC3 cells [4]; 17.5 μM,8.33%
same,% Normal,PC3 cells [4]; 17.5 μM,89.7%
same,% Apoptotic,PC3 cells [4]; 20.0 μM,1.23%
same,% Necrotic,PC3 cells [4]; 20.0 μM,8.06%
same,% Normal,PC3 cells [4]; 20.0 μM,90.7%
same,% Apoptotic,PC3 cells [4]; 22.5 μM,1.21%
same,% Normal,PC3 cells [4]; 22.5 μM,89.6%
same,induction of apoptosis,PC3 cells [4],not found to induce apoptosis
